Results reported in ChEMBL document CHEMBL1135699, “Designing non-peptide peptidomimetics in the 21st century: inhibitors targeting conformational ensembles” (J Med Chem, 2002).
Non-standard residues stand in square brackets, D forms with d. Residues, ends and D or L forms follow the SMILES beside them. *: point of attachment. Sta = CC(C)C[C@H](N)[C@@H](O)CC(=O)O; NHIsopentyl = CC(C)CCN*; X1 = CC(C)CCOC(=O)*

Assays:
Rhizopuspepsin = target: T1, Rhizopuspepsin (Rhizopus microsporus var. chinensis, UniProt P06026); test: Inhibitory concentration against Rhizopus chinensis pepsin; format: functional
T1 sequence (P06026 whole entry): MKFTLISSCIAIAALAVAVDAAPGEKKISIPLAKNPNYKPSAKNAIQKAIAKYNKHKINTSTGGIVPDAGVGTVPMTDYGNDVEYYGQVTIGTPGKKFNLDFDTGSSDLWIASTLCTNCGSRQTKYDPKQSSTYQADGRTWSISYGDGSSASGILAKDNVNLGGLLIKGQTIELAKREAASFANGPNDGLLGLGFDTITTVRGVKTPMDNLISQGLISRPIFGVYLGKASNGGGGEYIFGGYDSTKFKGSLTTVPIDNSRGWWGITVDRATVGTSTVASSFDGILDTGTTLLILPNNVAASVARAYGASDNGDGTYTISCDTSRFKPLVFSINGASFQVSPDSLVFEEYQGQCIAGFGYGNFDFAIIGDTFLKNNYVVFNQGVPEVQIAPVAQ

Pepsin A [1] = target: Pepsin A (Homo sapiens, UniProt P0DJD9); test: Inhibition of pepsin
Sequence of Pepsin A (Homo sapiens, UniProt P0DJD9) (P0DJD9 whole entry): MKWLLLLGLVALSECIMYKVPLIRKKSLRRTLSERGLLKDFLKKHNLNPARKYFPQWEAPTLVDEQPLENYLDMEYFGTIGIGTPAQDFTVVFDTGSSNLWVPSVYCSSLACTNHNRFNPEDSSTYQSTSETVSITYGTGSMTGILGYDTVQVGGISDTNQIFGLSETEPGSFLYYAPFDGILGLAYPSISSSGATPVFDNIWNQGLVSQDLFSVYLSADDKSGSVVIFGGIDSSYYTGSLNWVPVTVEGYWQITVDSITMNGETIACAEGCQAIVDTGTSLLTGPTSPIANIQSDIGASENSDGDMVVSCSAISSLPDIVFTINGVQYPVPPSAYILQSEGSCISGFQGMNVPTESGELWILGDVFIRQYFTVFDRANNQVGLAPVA

Pepsin A [2] = target: Pepsin A (Sus scrofa, UniProt P00791); test: Inhibitory concentration against porcine pepsin
Sequence of Pepsin A (Sus scrofa, UniProt P00791) (P00791 whole entry): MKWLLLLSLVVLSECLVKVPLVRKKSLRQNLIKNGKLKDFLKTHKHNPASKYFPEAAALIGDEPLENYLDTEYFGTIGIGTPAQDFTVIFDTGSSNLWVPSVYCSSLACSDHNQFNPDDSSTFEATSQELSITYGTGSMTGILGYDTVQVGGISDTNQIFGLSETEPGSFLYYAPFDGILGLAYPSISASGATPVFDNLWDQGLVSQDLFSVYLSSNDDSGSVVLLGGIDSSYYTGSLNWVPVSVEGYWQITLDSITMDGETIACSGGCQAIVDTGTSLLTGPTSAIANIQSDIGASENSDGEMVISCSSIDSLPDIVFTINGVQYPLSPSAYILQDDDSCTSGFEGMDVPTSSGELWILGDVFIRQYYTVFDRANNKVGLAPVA

SMILES | Ki (Pepsin A [1]) | also measured
O=C(COc1ccc([C@H]2CCNC[C@@H]2OCc2ccc(Br)cc2)cc1)c1ccc2ccccc2c1 |  | IC50 (Rhizopuspepsin): 2000 nM
CC(C)CCNC(=O)[C@H](C)NC(=O)C[C@H](O)[C@H](CC(C)C)NC(=O)[C@@H](NC(=O)[C@@H](NC(=O)OCCC(C)C)C(C)C)C(C)C (X1-VV[Sta]A-NHIsopentyl) | 0.1 nM | 
Brc1ccc(CO[C@H]2CNCC[C@@H]2c2ccccc2)cc1 |  | IC50 (Pepsin A [2]): 200 nM
CC(C)CCNC(=O)[C@H](C)NC(=O)C[C@@](C)(O)[C@H](CC(C)C)NC(=O)[C@@H](NC(=O)[C@@H](NC(=O)OCCC(C)C)C(C)C)C(C)C | 1.5 nM | 
CC(C)CCNC(=O)[C@H](C)NC(=O)C[C@](C)(O)[C@H](CC(C)C)NC(=O)[C@@H](NC(=O)[C@@H](NC(=O)OCCC(C)C)C(C)C)C(C)C | 1200 nM | 
